Measurements published in PMC5641083, “Blockage of FOXP3 transcription factor dimerization and FOXP3/AML1 interaction inhibits T regulatory cell activity: sequence optimization of a peptide inhibitor” (Oncotarget, 2017).
Like-named read-outs stand apart in the source and are kept apart here. Where a SMILES comes first, the peptide text is derived from it.

How the values were obtained:
[1] = test system: FOXP3-6His (native FOXP3, 1-421); experiment: Surface plasmon resonance, peptide binding to FOXP3-coated chip; conditions: for FOXP3 binding by SPR (in words): peptides at 2.5 μM, N-terminal acetylation and C-terminal amidation
Method: Using truncated versions of FOXP3, we attempted to identify the FOXP3 domain interacting with peptide P60, described previously by or group as a FOXP3 inhibitory peptide. Thus, besides native FOXP3 we prepared the deletion mutants FOXP3 (1-331) (lacking the C-terminus of FOXP3), FOXP3 (177-421) (lacking the N-terminus) and FOXP3 (1-177) (encompassing only the N-terminus of FOXP3) (Figure 1A). They were coated on a chip for SPR experiments.
Screening of peptide binding to FOXP3 was performed by surface plasmon resonance (SPR) using ProteOn XPR36 (Bio-Rad, Hercules CA, USA) optical biosensor. Recombinant protein FOXP3-6His and the indicated truncated versions of FOXP3 were produced and purified from E-coli and immobilized covalently onto a GLM sensor chip (Bio-Rad) using sulfo-NHS and EDC (Bio-Rad) coupling reagents. After protein immobilization, chip surface was treated with ethanolamine to deactivate the excess of reactive esters. Individual peptide solutions (1–20 μM) were injected by triplicate in running buffer (Phosphate buffered saline, 0.005% (v/v) Tween 20, pH 7.4) at a flow of 30 μl/min. The interspot signal (obtained in the chip surface not immobilized with protein) was used as reference.

murine Treg cells = type: cell-based, BALB/c mice
Source text: Results shown in Figures 1–3 correspond to cell-free assays where peptides can interact directly with its corresponding protein partner. However, FOXP3 binding peptides need to enter into the cell in order to inhibit FOXP3 functions. Once we identified some mutants with higher capacity to bind FOXP3, we studied their capacity to inhibit the suppressor activity of natural Tregs in vitro. Thus, we activated effector T cells with anti-CD3 monoclonal antibody in the presence of Tregs, and analyzed the capacity of each peptide to restore T cell proliferation inhibited by Treg cells. […] Indeed, when results from the point-variant screening are represented as a heat map, it is clear that introduction of an alanine at positions 2, 5 and 11 improved activity of the original P60, whereas alanine mutations at positions 1, 7, 8, 9, 10 and 12 are detrimental (Figure 4C).
Isolation of murine CD4^+CD25^+, and CD4^+CD25^− T-cells was performed from murine spleen cells by using murine regulatory T-cell isolation kit (Miltenyi Biotec, Bergisch Gladbach, Germany) according to manufacturer's instructions. The purity of the resulting T-cell populations was confirmed to be > 95% by flow cytometry.
Inhibition of murine T regulatory cell function was measured in an in vitro assay of T-cell stimulation. CD25+ depleted spleen cells (10^5 cells/well) from BALB/c mice were stimulated in vitro with 2, 5 μg/ml of anti-mouse CD3 antibody (Pharmingen) in the presence/absence of purified Treg cells (10^4 cells/well). T-cell proliferation was measured 3 days later as previously described.

[2] = Metabolic stability in human liver microsomes; type: in vitro ADME; conditions: 1 μM, estimated by first order kinetics
Method: (§1) Metabolic stability was measured by Wuxi AppTech (Shanghai, China). Briefly, peptides (1 μM, 5% MeOH in potassium phosphate buffer) were incubated with human (catalogue no. 452161 from BD Gentest) and mouse (catalogue no. M1000, Xenotech) liver microsomes at 37°C for 10 min. Liver microsomes were at a final assay concentration of 0.7 mg protein/mL. The reaction was started by the addition of 90 μL of NADP cofactor solution and stopped by the addition of 300 μL of stop solution (acetonitrile at 4°C, including 100 ng/mL tolbutamide as an internal standard) after 20 min of incubation. The samples were shaken for 5 min and then centrifuged for 20 min at 1500 g. A 100 μL aliquot of the supernatant was transferred to eight new 96-well plates with 300 μL of HPLC water and centrifuged at 1500 g for LC-MS/MS analysis (Shimadzu LC 10-AD−API 4000). An injection volume of 10 μL was added to a Phenomenex Synergi C18 column eluting with formic acid in water or acetonitrile at a flow rate of 800 μL/min. The percent loss of parent compound was calculated from the peak area ratio of the analyte/internal standard. Compounds and positive controls were tested in duplicate.

[3] = Metabolic stability in mouse liver microsomes; type: in vitro ADME; conditions: 1 μM, estimated by first order kinetics
Method: as §1

FOXP3/AML1 interaction = biological target: T1, FOXP3/AML1 interaction (Homo sapiens, UniProt Q9BZS1); experiment: AlphaScreen FOXP3/AML1 heterodimerization assay; type: biochemical
T1 sequence (Q9BZS1 1-431): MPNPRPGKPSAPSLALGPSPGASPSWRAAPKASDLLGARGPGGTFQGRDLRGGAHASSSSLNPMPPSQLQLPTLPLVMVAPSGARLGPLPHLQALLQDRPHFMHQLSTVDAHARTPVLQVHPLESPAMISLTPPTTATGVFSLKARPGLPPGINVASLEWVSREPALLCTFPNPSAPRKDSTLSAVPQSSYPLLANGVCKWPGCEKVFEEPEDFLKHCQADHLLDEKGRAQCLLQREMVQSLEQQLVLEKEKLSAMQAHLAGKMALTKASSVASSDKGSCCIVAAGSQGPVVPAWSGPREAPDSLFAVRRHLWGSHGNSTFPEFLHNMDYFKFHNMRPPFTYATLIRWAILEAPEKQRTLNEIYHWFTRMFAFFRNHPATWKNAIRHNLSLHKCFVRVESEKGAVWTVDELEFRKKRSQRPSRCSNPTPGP
Source text: (§2) AML1 is required for IL-2 and IFN-γ gene expression in conventional CD4+ T cells and its interaction with FOXP3 is needed for the immunosuppressive activity of Tregs. On the other hand, it has been described that the leucine zipper region is necessary and sufficient to mediate FOXP3 homo-dimerization, which is required for its function as a transcriptional regulator [13, 15, 20]. Thus, since P60 binds to this FOXP3 intermediate region, we analyzed if it could act as a decoy molecule to inhibit FOXP3 homodimerization or the FOXP3-AML1 heterodimerization. The capacity of FOXP3 to homodimerize was measured using the […] assay platform AlphaScreen™ (Perkin Elmer). Previous protein-cross titration experiment using different concentrations of FOXP3-6His (from 1000 to 0 nM) and GST-FOXP3 (from 300 to 0 nM) allowed us to define the optimal protein concentrations to analyze FOXP3 homodimerization (Figure 2A). […] We also tested if GST tagged FOXP3 was able to interact with AML1 protein tagged with 6 His at the N-terminus. As shown in the cross titration experiments in Figure 2C, a specific FOXP3-AML1 heterodimerization was visualized as an increase in the AlphaScreen signal.
(§3) FOXP3/AML1 heterodimerization, as well as FOXP3/FOXP3 homodimerization were analyzed by Alphascreen technology according to the manufacturer's instructions (Perkin Elmer, Benelux) as previously described.

Hepa-129 cells = experiment: Hepa-129 subcutaneous tumor rejection model; type: in vivo, C3H/HeN mice; conditions: Hepa-129 s.c.
Method: Seven days after Hepa-129 cells injection, when the tumor reached 5 mm in diameter, mice were treated with CM-1215 (from days 7 to 16, 50μg/day/mouse) or anti-PD1 antibodies (50 μg/mice) at days 7 and 14. A group of mice treated with anti-PD1 received also 10 consecutive i.p. administrations of CM-1215 from days 7 to 16 (50 μg/day/mouse).
For tumor rejection experiments, Hepa-129 cells (10^6 cells/mouse), were injected subcutaneously (sc) in C3H/HeN mice (n = 6). Ten days later, when the tumor reached 5 mm in diameter, mice were randomly divided into different experimental groups. A group of mice were treated i.p. with anti-PD1 antibodies (50 μg/mouse). Antibody administration was repeated one week after this first administration. A group of mice treated with anti-PD1 also received the cyclic peptide CM-1215 from days 10 to 20 (50 μg/mice/day). Tumor size, presented as the average of two perpendicular diameters (millimetres), was measured at regular intervals. Mice were sacrificed when the mean tumor diameter was greater than 20 mm. […] Tumor size was monitored twice a week with a calliper and it was expressed according to the formula V = (length × width^2)/2. […]

[4] = biological target: T2, FOXP3/FOXP3 homodimerization (GST-FOXP3 and FOXP3-His) (Homo sapiens, UniProt Q9BZS1); experiment: AlphaScreen FOXP3 homodimerization assay; type: biochemical; conditions: GST-FOXP3 40 nM, FOXP3-His 300 nM
T2 construct: made in house; host or cells: E. coli
T2 sequence (Q9BZS1 1-421): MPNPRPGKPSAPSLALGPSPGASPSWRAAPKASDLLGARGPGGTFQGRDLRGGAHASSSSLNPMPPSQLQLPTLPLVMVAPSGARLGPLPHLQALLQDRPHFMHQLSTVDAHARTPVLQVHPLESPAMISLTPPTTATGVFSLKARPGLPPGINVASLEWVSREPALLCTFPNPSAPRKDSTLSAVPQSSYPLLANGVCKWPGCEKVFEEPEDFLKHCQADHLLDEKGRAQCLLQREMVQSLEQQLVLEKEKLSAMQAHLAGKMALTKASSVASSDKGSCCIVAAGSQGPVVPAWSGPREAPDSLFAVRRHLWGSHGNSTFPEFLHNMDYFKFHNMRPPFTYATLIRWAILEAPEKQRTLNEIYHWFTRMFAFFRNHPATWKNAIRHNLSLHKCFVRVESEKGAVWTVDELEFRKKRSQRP
Source text: as §2, §3

| IC50 (murine Treg cells) | Compound | FOXP3 binding by SPR (in words) [1] | half-life [2] | half-life [3] | Inhibition of FOXP3-AML1 heterodimerization (in words) (FOXP3/AML1 interaction) | FOXP3 binding capacity by SPR (in words) ([1]; FOXP3 coated on chip, mutants compared with original P60) | T1/2 [2] | Antitumor effect / survival, single agent (in words) (Hepa-129 cells; CM-1215 50μg/day/mouse i.p. days 7 to 16, anti-PD1 50 μg/mice days 7 and 14) | Antitumor activity in combination with anti-PD1 (in words) (Hepa-129 cells; anti-PD1 50 μg days 7 and 14 plus CM-1215 50 μg/day/mouse i.p. days 7 to 16, p < 0.001) | IC50 (murine Treg cells; in vitro cell based bioassay, read-out: IC50 to inhibit Treg activity) | Inhibition of FOXP3 homodimerization (in words) [4] |
| --- | --- | --- | --- | --- | --- | --- | --- | --- | --- | --- | --- |
| 1.89 µM | Ac-RAFQAFRKMWPFFAM-NH2 [P60-D2A-S5A] | improved FOXP3 binding | < 2.5 min | < 2.5 min | significantly improved the capacity of the original P60 peptide to inhibit this interaction | – | – | – | – | – | – |
| 2.95 µM | Ac-RAFQAFRKMWAFFAM-NH2 [P60-D2A-S5A-P11A] | improved very significantly the FOXP3 binding capacity | – | – | significantly improved the capacity of the original P60 peptide to inhibit this interaction | – | – | – | – | – | – |
| – | H-RAFQSFRKMWPFFAM-OH [P60-D2A] | – | – | – | inhibited | – | – | – | – | 27.2 µM | inhibited |

| Compound | IC50 (murine Treg cells) | FOXP3 binding by SPR (in words) [1] | half-life [2] | half-life [3] | Inhibition of FOXP3-AML1 heterodimerization (in words) (FOXP3/AML1 interaction) | FOXP3 binding capacity by SPR (in words) ([1]; FOXP3 coated on chip, mutants compared with original P60) | T1/2 [2] | Antitumor effect / survival, single agent (in words) (Hepa-129 cells; CM-1215 50μg/day/mouse i.p. days 7 to 16, anti-PD1 50 μg/mice days 7 and 14) | Antitumor activity in combination with anti-PD1 (in words) (Hepa-129 cells; anti-PD1 50 μg days 7 and 14 plus CM-1215 50 μg/day/mouse i.p. days 7 to 16, p < 0.001) | IC50 (murine Treg cells; in vitro cell based bioassay, read-out: IC50 to inhibit Treg activity) | Inhibition of FOXP3 homodimerization (in words) [4] |
| --- | --- | --- | --- | --- | --- | --- | --- | --- | --- | --- | --- |
| CSCC[C@@H]1NC(=O)[C@H](C)NC(=O)[C@H](Cc2ccccc2)NC(=O)[C@H](Cc2ccccc2)NC(=O)[C@@H]2CCCN2C(=O)[C@H](Cc2c[nH]c3ccccc23)NC(=O)[C@H](CCSC)NC(=O)[C@H](CCCCN)NC(=O)[C@H](CCCNC(=N)N)NC(=O)[C@H](Cc2ccccc2)NC(=O)[C@H](C)NC(=O)[C@H](CCC(N)=O)NC(=O)[C@H](Cc2ccccc2)NC(=O)[C@H](C)NC(=O)[C@H](CCCNC(=N)N)NC1=O [CM-1215] (cyclo(RAFQAFRKMWPFFAM)) | 0.77 µM | – | ~8 min | ~8 min | – | improved very significantly its capacity to bind to FOXP3 | 5.30 min | some beneficial effect on the percentage of survival, this response did not reach statistical significance | exhibited antitumor activity | – | – |
